The numbers were not newly measured in patent US20080108586A1, “COMBINATION THERAPY FOR HUMAN IMMUNODEFICIENCY VIRUS INFECTION” (Incyte Corporation, priority 2006, published 2008), which cites them from elsewhere.

One series addresses rhesus macaque CCR5 (Macaca mulatta, UniProt P61813).
In a further series the target is human CCR5 (Homo sapiens, UniProt P51681).
human CCR5, sequence (P51681 whole entry): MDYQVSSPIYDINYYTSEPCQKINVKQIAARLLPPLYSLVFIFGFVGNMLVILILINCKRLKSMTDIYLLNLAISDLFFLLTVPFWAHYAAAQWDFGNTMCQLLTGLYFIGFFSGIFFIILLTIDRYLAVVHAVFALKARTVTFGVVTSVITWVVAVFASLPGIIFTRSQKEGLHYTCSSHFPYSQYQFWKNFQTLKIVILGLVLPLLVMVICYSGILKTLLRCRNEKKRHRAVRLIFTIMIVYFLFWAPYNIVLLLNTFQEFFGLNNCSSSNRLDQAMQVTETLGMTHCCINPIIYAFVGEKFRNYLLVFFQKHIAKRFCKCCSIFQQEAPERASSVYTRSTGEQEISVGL

For the compound `Cc1ncnc(C)c1C(=O)N1CCC(C)(N2CCN([C@@H](C)c3ccc(C(F)(F)F)cc3)[C@@H](C)C2)CC1` [AD101, (4,6-dimethylpyrimidin-5-yl)(4-methyl-4-((S)-3-methyl-4-((S)-1-(4-(trifluoromethyl)-phenyl)ethyl)piperazin-1-yl)piperidin-1-yl)methanone], the “inhibition of HIV-1 entry via rhesus macaque CCR5” value on rhesus macaque CCR5 is reported as “inhibits”. The “inhibition of HIV-1 entry via human CCR5” value at human CCR5 was “inhibits”.
